In patent US6797699B1, “Neuroprotective agents” (University of Southampton, priority 1997, dated 2004):
Marks after values point to notes of the source that are not given here.

Assays:
[1] = test system: anaesthetised male Wistar rats; test: Blood flow studies (mean arterial blood pressure after intravenous injection); format: in vivo, Wistar rat; conditions: for MABP (mmHg): pre-injection 79.9 ± 3.9, four observations
Description: Adult male Wistar rats (250-300 g) were initially anesthetized with 4% halothane and subsequently anaesthesia was maintained with 1.5% halothane mixed in […] in O2. The femoral artery was cannulated for continuous blood pressure recording. The femoral vein was also cannulated to allow injection of the compound. Animals were allowed 15-30 minutes to stabilise and were then injected with 0.25-0.3 ml of a 1 mg/ml solution of L-ArgSp. Following injection of the compound, rats were continuously monitored for 60 minutes. After this time, anaesthesia was terminated and rats allowed to waken. In these studies, measurement was taken of the mean arterial blood pressure (MABP) induced following an intravenous injection of 1 mg/kg L-ArgSp into the femoral vein of anaesthetised male Wistar rats. MABP was calculated immediately prior to injection of L-ArgSp (pre-injection) and 30 seconds and 10 minutes post-injection. Data are presented as mean […] of four observations.

[2] = test system: CA1 pyramidal cell layer of organotypic hippocampal slice cultures; test: Hypoxic neuronal damage in organotypic hippocampal slice cultures (propidium iodide fluorescence); format: cell-based, Wistar rat; conditions: for neuroprotective effect (in words): 300 μM added 30 minutes prior to hypoxia, during hypoxia and the 24 hour recovery period
Description: Hypoxic neuronal damage was studied using organotypic hippocampal slice cultures [Pringle A. K. et al. (1996 Stroke 27 2124-2130)].
Cultures were prepared according to the method of Stoppini et al (1991 J. Neurosci. Meth. 37 173-182) from 8-10 day old Wistar rat pups (Bioresources Unit, University of Southampton). Cultures were maintained in vitro for 14 days (37° C., 5% CO2) during which the medium (50% minimum essential medium (MEM), 25% Hank's balanced salt solution (HBSS), 25% heat-inactivated horse serum, supplemented with 1 mM glutamine, 5 mg/ml glucose and 1.5% fungizone) was changed every 3 days. Hypoxia was induced by replacing culture medium with serum-free (SF) medium (75% MEM, 25% HBSS, 1 mM glutamine, 5 mg/ml glucose, 1.5% fungizone) saturated with 95% N2/5% CO2 (and thus oxygen-free), and placing cultures in an air-tight chamber in which the atmosphere was also saturated with N2/CO2. After 180 minutes hypoxia, cultures were replated in normoxic SF medium and replaced in the incubator for 24 hours. Compounds were added to cultures either pre-, during and post-hypoxia (herein abbreviated to “pdp”) or just in the post-hypoxic recovery period (“post”) [Johnson, T. D. (1996 Trends Pharmacol. Sci. 22-27)]. Cell damage was evaluated using the fluorescent exclusion dye propidium iodide (PI, 5 μg/ml) which is normally excluded from healthy cells, but enters cells with damaged plasma membranes and becomes highly fluorescent when bound to DNA. Neuronal cell damage was quantified using the “NIH Image 1.55” software (written by Wayne Rasband at the U.S. National Institutes for Health and available from the internet by anonymous ftp from zippy.nimh.nih.gov). Briefly, the area of the CA1, CA3 and dentate gyrus (DG) cell layers was measured from a transmission image. 24 hours after the commencement of hypoxia, a fluorescence image was captured using a standard Leica inverted fluorescence microscope fitted with a rhodamine filter set. The area of PI fluorescence above background in the neuronal cell layers was determined using the density slice function of Image. Cellular damage is expressed as the percentage area of the cell body layers in which PI fluorescence was detectable. After imaging, cultures were fixed overnight in 4% paraformaldehyde and stained with thionin.
Data are expressed as the mean±sem. Data from the non-drug groups was pooled before analysis. Statistical significance was determined using one-way analysis of variance (ANOVA) followed by post-hoc non-paired Student's t-tests. As only cells within the CA1 region were susceptible to hypoxia-induced damage, all of the pharmacological data was calculated for this region alone.
Table 1 represents the quantification of the percentage area of the CA1 pyramidal cell layer in which PI fluorescence was detectable 24 hours after 3 hours of hypoxia (% Damage CA1). Data from all of the cultures exposed to hypoxia alone were pooled (control hypoxia). The percentage neuroprotection was calculated as the (((% damage control hypoxia-% damage drug treated)/% damage control hypoxia) 100). Data are expressed as the mean±sem, n=number of cultures, *p<0.05, **<0.01, ***p<0.001 vs hypoxia control.

Adult male Wistar rats = test: Global forebrain ischaemia in vivo; design: species or system Wistar rat; conditions: 1 mg/kg 15 minutes prior to 15 minutes global forebrain ischaemia; assessed 24 hours after; vs vehicle
Description: Animals were anaesthetised as described above, and a thermistor inserted into the left temporal muscle for recording of body temperature. A dorsal midline skin incision was made in the neck and using microsurgery, the vertebral arteries were identified and occluded using a monopolar electrode at the level of C 1. The incision was closed, animals allowed to recover from anaesthesia and returned to their cages for 24 hours. After this time, animals were re-anaesthetised and the common carotid arteries (CCAs) exposed. Animals were divided into two groups. Group 1 received 0.25-0.3 ml of a 1 mg/ml solution of L-ArgSp (final dose 1 mg/kg) while group 2 received 0.25-0.3 ml of sterile distilled water. Samples were prepared independently and randomised prior to injection. Animals were injected 15 minutes prior to occlusion of the CCAs with microvascular clips for 15 minutes. After this time, the skin was closed, and animals allowed to recover. After 24 hours animals were terminally anaesthetised and transcardially perfused with 1% paraformaldehyde and the brains removed and processed for histology. A blinded observer determined the number of live and dead neurones in the CA1, CA3 fields of the pyramidal cell layer, and the dentate gyrus granule cell layer from haematoxylin and eosin stained coronal sections.

N=C(N)NCCCC(N)C(=O)NCCCNCCCCN [Compound A, N′-L-Arginylspermidine]
effect on body temperature ([1]; 1 mg/kg intravenous): No effect | effect on heart rate ([1]; 1 mg/kg intravenous): No effect | ill effects on the animals following wakening ([1]; 1 mg/kg intravenous): no ill effects | reduction in MABP (significance, in words) ([1]; 1 mg/kg intravenous): not statistically significant | % Charge ([1]; 1 mg/kg intravenous, 30 secs post-injection vs pre-injection): −9.6% | MABP (mmHg) ([1]; 1 mg/kg intravenous, 30 secs post-injection): 72.2 ± 5.1 mmHg | % Charge ([1]; 1 mg/kg intravenous, 10 minutes post-injection vs pre-injection): −0.9% | MABP (mmHg) ([1]; 1 mg/kg intravenous, 10 minutes post-injection): 79.2 ± 6.5 mmHg | blood pressure recordings (in words) ([1]; 1 mg/kg intravenous, 60 minutes after injection): identical to those 10 minutes post-drug administration | long-term behavioural deficits ([1]; 1 mg/kg, five rats recovered for three days): no long-term behavioural deficits have been observed | effect on blood flow compared with FTX (in words) ([1]; rat, in vivo): less adverse effect on blood flow than FTX | neuroprotective effect (in words) [2]: complete protection | neuroprotective effect (in words) ([2]; listed as L-ArgSp): completely neuroprotective | neuroprotective effect / reduction of PI fluorescence in CA1 (in words) ([2]; 300 μM added post-hypoxia): significant protective effect | neuroprotective effect / reduction of PI fluorescence in CA1 (in words) ([2]; 300 μM added post-hypoxia, listed as L-ArgSp): significant neuroprotective effect | concentration dependence of the neuroprotective effect ([2]; 0.3-300 μM added immediately post-hypoxia): concentration dependent | EC50 ([2]; Rattus norvegicus, added immediately post-hypoxia, 0.3-300 μM, read-out: EC50 of the neuroprotective effect): 3 to 30 µM | % Damage CA1 ([2]; Table 1, 300 μM added post-hypoxia, 3 h hypoxia, PI at 24 h, control hypoxia 35.6 ± 1.43, mean±sem): 9.9 ± 3.5*** % | % Protection ([2]; Table 1, 300 μM added post-hypoxia, vs control hypoxia): > 70% | % Protection ([2]; Table 1, 300 μM added post-hypoxia, vs control hypoxia, listed as L-ArgSp): 72.2% | % Damage CA1 ([2]; Table 1, 300 μM added pre-, during and post-hypoxia (pre), 3 h hypoxia, PI at 24 h, control hypoxia 35.6 ± 1.43, mean±sem, listed as L-ArgSp): 0.2±0.02% | % Protection ([2]; Table 1, 300 μM added pre-, during and post-hypoxia (pre), vs control hypoxia): 99.4% | % Protection ([2]; Table 3, 0.3 μM pdp, fresh batch): 15.5% | % Damage CA1 ([2]; Table 3, 0.3 μM pdp, fresh batch, control hypoxia 23.9 ± 2.7): 20.2 ± 8.4% | % Protection ([2]; Table 3, 1 μM pdp, fresh batch): 15.9% | % Damage CA1 ([2]; Table 3, 1 μM pdp, fresh batch, control hypoxia 23.9 ± 2.7): 20.1 ± 8.2% | % Protection ([2]; Table 3, 3 μM pdp, fresh batch): 72.8% | % Damage CA1 ([2]; Table 3, 3 μM pdp, fresh batch, control hypoxia 23.9 ± 2.7): 6.5 ± 3.0** % | % Protection ([2]; Table 3, 10 μM pdp, fresh batch): 63.2% | % Damage CA1 ([2]; Table 3, 10 μM pdp, fresh batch, control hypoxia 23.9 ± 2.7): 8.8 ± 3.9* % | % Protection ([2]; Table 3, 30 μM pdp, fresh batch): 65.9% | % Damage CA1 ([2]; Table 3, 30 μM pdp, fresh batch, control hypoxia 23.9 ± 2.7): 7.3 ± 4.2* % | % Protection ([2]; Table 3, 300 μM pdp, fresh batch): 66.5% | % Damage CA1 ([2]; Table 3, 300 μM pdp, fresh batch, control hypoxia 23.9 ± 2.7): 8.0 ± 3.0** % | % Protection ([2]; Table 7, 300 μM post): 56.3% | % Damage CA1 ([2]; Table 7, 300 μM post, hypoxia control 27.7 ± 3.1): 12.1 ± 3.5** % | neuronal loss in CA1, CA3 and dentate gyrus (in words) (Adult male Wistar rats): neuronal loss was significantly attenuated
